Legend:
L. pictus eggs [1] = test: Egg activation after insemination of injected eggs; conditions: for subsequent activation of oxyHb-inhibited eggs: after insemination, ionomycin 2 μM, GTPγS 100 μM final or cGMP 50 μM final injected; for fertilization envelope elevation / egg activation after insemination: eggs injected with oxyHb 12.5 or 50 μM, or 50 μM BSA, apoHb, cyanometHb, 1:20,000 sperm dilution
Method: (§2) Also, co-injection of SNAP or CaM/nNOS with oxyHb. […] Subsequent activation of oxyHb-inhibited eggs by ionomycin (2 μM) or injection of either GTPγS (100 μM final) or cGMP (50 μM final).
(§3) The necessity of NO (or its equivalents) was assessed by injecting eggs with oxyHb.

NOS = conditions: gamete homogenates; ornithine 1.5 mM, nitro-L-arginine 100 μM
Method: Absorbance at 585 nm was measured and normalized to total protein. […] This diaphorase activity is indicative of NOS activity. […] NOS activity is shown measured by citrulline conversion.
NADPH-dependent diaphorase activity or histochemical staining was assessed after a 24-h fixation of gametes. For activity measurements, gametes were lysed (sperm) or sonicated (eggs) in PBS with 1% NP-40 and incubated overnight in 1 mM NADPH, 0.5 mM NBT. Immunodepletion of diaphorase activity was done after size separation (>100K molecular weight cut-off (Amicon)). [^3H]arginine to [^3H]citrulline conversion of gamete homogenates was assessed after two cycles of freeze-thaw lysis (sperm) or Dounce homogenization (eggs) (in mM): 50 KCl, 10 NaCl, 1 EDTA, 5 DTT, 20 HEPES with PIC; pH 8. For inhibition experiments, gamete homogenates were treated with 20% (v/v) activated Dowex to remove endogenous arginine. […] NO determination by DAF fluorescence (490/515 nm) was done after incubating gametes in seawater containing 10 μM DAF.

L. pictus eggs [2] = test: Egg activation by microinjection (fertilization envelope elevation, pronuclear centering)
Method: as §2

S. purpuratus eggs [3] = test: NO production after egg activation, DAF fluorescence; assay type: cell-based; conditions: 1 mM ionomycin, 5 min
Description: (§1) We measure production of NO by gametes by accumulation of nitrite, an auto-oxidation product of NO, or by fluorescence changes in the NO indicator dye, diaminofluorescein (DAF). Qualitatively similar results are seen for exogenous NO production: activation of either male or female gametes results in NO accumulation in the surrounding medium (Table 1). […] Pre-treatment with inhibitors of the acrosome reaction, substantially prevents NO generation, but is triggered after subsequent addition of ionomycin (Table 2). Similarly, eggs activated by ionomycin treatment generate NO, although at lower levels than sperm (Table 1).

S. purpuratus sperm [4] = test: NO production after sperm activation, nitrite accumulation; assay type: cell-based; conditions: 5 min, 5 mM ionomycin or egg jelly, normalized to per cent acrosome reaction
Description: as §1

S. purpuratus sperm [5] = test: NO production after sperm activation, DAF fluorescence; assay type: cell-based; conditions: 5 min, 5 mM ionomycin or egg jelly
Description: as §1

S. purpuratus eggs [6] = test: NO production after egg activation, nitrite accumulation; assay type: cell-based; conditions: 1 mM ionomycin, 5 min
Description: as §1

bovine oocytes = test: Calcium oscillations in bovine oocytes (fura-2 AM imaging); assay type: cell-based; conditions: oxyhemoglobin injected 30 to 45 minutes before sperm factor, ~200 uM final heme
Method: Bovine oocytes were ordered from Bomed (2433 University Avenue, Madison, Wis. 53705-3835). They collect the oocytes from the ovaries of slaughtered cows and place them immediately in maturation media to be shipped overnight.
Oocytes were matured overnight and used within 24-28 hours of collection. Oocytes were washed briefly three times in TL-HEPES media and then denuded by vortexing for 3 minutes in TL-HEPES containing 0.2% hyaluronidase. Denuded oocytes were subsequently washed in TL-HEPES and loaded with fura-2 AM by incubation at 37° C. for 15 to 30 minutes. Oocytes were attached to imaging dishes (Biopteks) using 50 μg/ml poly-D-lysine and imaged using 350/380 nm excitation and 510 nm emission filters on a Zeiss Axiovert S100 microscope and fluorescence intensity quantified using Metafluor 4.1 (Universal Imaging).
SNAP ([…]), an NO donor was synthesized prior to use by the method of Fehsel et al. (1996) Meth. Enzymol. 269:426-434. NO release was accomplished by bath addition of SNAP. Calcium release could be effectuated by addition of SNAP at varying concentrations (0.5 mM to 5 mM).
Sperm factor was prepared by the method of Wu et al. (Wu et al., 1997) and injected by a Narishige syringe microinjector to ˜2% oocyte volume. […] Calcium levels were monitored as detailed above.

L. pictus eggs [7] = test: Calcium release in eggs at fertilization measured by calcium green-2; conditions: oxyHb-injected eggs (14 eggs)
Method: as §2, §3

Molecule: Nc1nc2c(ncn2[C@@H]2O[C@H](COP(=O)(O)OP(=O)(O)OP(O)(O)=S)[C@@H](O)[C@H]2O)c(=O)[nH]1 [GTPS]
- subsequent activation of oxyHb-inhibited eggs (L. pictus eggs [1]): elevate fertilization envelopes

Molecule: N=C(NCCC[C@H](N)C(=O)O)N[N+](=O)[O-] [NG-nitro-L-arginine]
- effect on citrulline conversion activity (NOS): greatly suppresses

Molecule: [N]=O [NO, nitric oxide]
- egg activation by bath application (L. pictus eggs [2]; bath application, not injected): ineffective

Molecule: Nc1nc2c(ncn2[C@@H]2O[C@@H]3COP(=O)(O)O[C@H]3[C@H]2O)c(=O)[nH]1 [cGMP]
- subsequent activation of oxyHb-inhibited eggs (L. pictus eggs [1]): elevate fertilization envelopes

Molecule: C[C@H](CCC(=O)O)C[C@H](C)C[C@H](C)C(=O)/C=C(\O)[C@H](C)C[C@H](C)C/C=C/[C@@H](C)[C@@H](O)[C@@H](C)[C@@H](O)C[C@@H]1CC[C@@](C)([C@H]2CC[C@@](C)([C@@H](C)O)O2)O1 [ionomycin]
- DAF Fluorescence (S. purpuratus eggs [3]; Eggs (1%, v/v)): 56 ± 10 arbitrary units
- DAF Fluorescence (S. purpuratus eggs [3]; Eggs (2%, v/v)): 76 ± 8 arbitrary units
- DAF Fluorescence (S. purpuratus eggs [3]; Eggs (5%, v/v)): 112 ± 6 arbitrary units
- Nitrite (S. purpuratus sperm [4]; Sperm (1 μl)): 75 ± 30 pmol
- Nitrite (S. purpuratus sperm [4]; Sperm (5 ml)): 153 ± 15 pmol
- Nitrite (S. purpuratus sperm [4]; Sperm (10 ml)): 283 ± 15 pmol
- subsequent activation of oxyHb-inhibited eggs (L. pictus eggs [1]): elevate fertilization envelopes
- DAF Fluorescence (S. purpuratus sperm [5]; Sperm (1 μl)): 103 ± 13 arbitrary units
- DAF Fluorescence (S. purpuratus sperm [5]; Sperm (5 ml)): 543 ± 35 arbitrary units
- DAF Fluorescence (S. purpuratus sperm [5]; Sperm (10 ml)): 910 ± 93 arbitrary units
- Nitrite (S. purpuratus eggs [6]; Eggs (1%, v/v)): 64 ± 4 pmol
- Nitrite (S. purpuratus eggs [6]; Eggs (2%, v/v)): 82 ± 9 pmol
- Nitrite (S. purpuratus eggs [6]; Eggs (5%, v/v)): 141 ± 10 pmol

Molecule: bovine serum albumin: a nitrosylable protein
- fertilization envelope elevation / egg activation after insemination (L. pictus eggs [1]): not significantly affected

Molecule: oxyHb: oxyhemoglobin, a physiological scavenger of NO
- egg activation by SNAP or CaM/nNOS when co-injected with oxyHb (L. pictus eggs [2]; co-injection): does not occur
- fertilization envelope elevation / egg activation after insemination (L. pictus eggs [1]): dose-dependently inhibited
- pronuclear centering and first cell division (L. pictus eggs [1]; oxyHb-injected eggs after insemination): 0 out of 15
- effect on sperm factor induced calcium oscillations (bovine oocytes): inhibition
- peak Ca2+ post-fertilization (L. pictus eggs [7]; control 1.4±0.2 μM): 540 ± 95 nM
- resting Ca2+ (L. pictus eggs [7]; control 240±30 nM): 280 ± 65 nM

Molecule: recombinant nNOS with calmodulin (CaM): recombinant CaM-nNOS complexes formed by mixing CaM with nNOS
- pronuclear centering (eggs exhibiting a full fertilization envelope) (L. pictus eggs [2]; injected eggs): 13 out of 13

B1: nNOS: recombinant neuronal nitric oxide synthase from Stratagene (protein, UniProt P29475 1-1434, looked up)
Nitric oxide synthase 1: MEDHMFGVQQIQPNVISVRLFKRKVGGLGFLVKERVSKPPVIISDLIRGGAAEQSGLIQAGDIILAVNGRPLVDLSYDSALEVLRGIASETHVVLILRGPEGFTTHLETTFTGDGTPKTIRVTQPLGPPTKAVDLSHQPPAGKEQPLAVDGASGPGNGPQHAYDDGQEAGSLPHANGLAPRPPGQDPAKKATRVSLQGRGENNELLKEIEPVLSLLTSGSRGVKGGAPAKAEMKDMGIQVDRDLDGKSHKPLPLGVENDRVFNDLWGKGNVPVVLNNPYSEKEQPPTSGKQSPTKNGSPSKCPRFLKVKNWETEVVLTDTLHLKSTLETGCTEYICMGSIMHPSQHARRPEDVRTKGQLFPLAKEFIDQYYSSIKRFGSKAHMERLEEVNKEIDTTSTYQLKDTELIYGAKHAWRNASRCVGRIQWSKLQVFDARDCTTAHGMFNYICNHVKYATNKGNLRSAITIFPQRTDGKHDFRVWNSQLIRYAGYKQPDGSTLGDPANVQFTEICIQQGWKPPRGRFDVLPLLLQANGNDPELFQIPPELVLEVPIRHPKFEWFKDLGLKWYGLPAVSNMLLEIGGLEFSACPFSGWYMGTEIGVRDYCDNSRYNILEEVAKKMNLDMRKTSSLWKDQALVEINIAVLYSFQSDKVTIVDHHSATESFIKHMENEYRCRGGCPADWVWIVPPMSGSITPVFHQEMLNYRLTPSFEYQPDPWNTHVWKGTNGTPTKRRAIGFKKLAEAVKFSAKLMGQAMAKRVKATILYATETGKSQAYAKTLCEIFKHAFDAKVMSMEEYDIVHLEHETLVLVVTSTFGNGDPPENGEKFGCALMEMRHPNSVQEERKSYKVRFNSVSSYSDSQKSSGDGPDLRDNFESAGPLANVRFSVFGLGSRAYPHFCAFGHAVDTLLEELGGERILKMREGDELCGQEEAFRTWAKKVFKAACDVFCVGDDVNIEKANNSLISNDRSWKRNKFRLTFVAEAPELTQGLSNVHKKRVSAARLLSRQNLQSPKSSRSTIFVRLHTNGSQELQYQPGDHLGVFPGNHEDLVNALIERLEDAPPVNQMVKVELLEERNTALGVISNWTDELRLPPCTIFQAFKYYLDITTPPTPLQLQQFASLATSEKEKQRLLVLSKGLQEYEEWKWGKNPTIVEVLEEFPSIQMPATLLLTQLSLLQPRYYSISSSPDMYPDEVHLTVAIVSYRTRDGEGPIHHGVCSSWLNRIQADELVPCFVRGAPSFHLPRNPQVPCILVGPGTGIAPFRSFWQQRQFDIQHKGMNPCPMVLVFGCRQSKIDHIYREETLQAKNKGVFRELYTAYSREPDKPKKYVQDILQEQLAESVYRALKEQGGHIYVCGDVTMAADVLKAIQRIMTQQGKLSAEDAGVFISRMRDDNRYHEDIFGVTLRTYEVTNRLRSESIAFIEESKKDTDEVFSS
- injected amount yielding activation (L. pictus eggs [2]; recombinant nNOS, with CaM): ~0.0075 pg
